Data taken from ChEMBL document CHEMBL1131349, “4-[(1H-imidazol-4-yl) methyl] benzamidines and benzylamidines: novel antagonists of the histamine H3 receptor” (Bioorg Med Chem Lett, 1998).

What follows are molecules tested against Histamine H3 receptor (Cavia porcellus, UniProt Q9JI35) (assay: Inhibition of N-alpha-methylhistamine binding to histamine H3 receptor of guinea pig brain membranes). Conditions: not given.
Histamine H3 receptor, sequence (Q9JI35 whole entry): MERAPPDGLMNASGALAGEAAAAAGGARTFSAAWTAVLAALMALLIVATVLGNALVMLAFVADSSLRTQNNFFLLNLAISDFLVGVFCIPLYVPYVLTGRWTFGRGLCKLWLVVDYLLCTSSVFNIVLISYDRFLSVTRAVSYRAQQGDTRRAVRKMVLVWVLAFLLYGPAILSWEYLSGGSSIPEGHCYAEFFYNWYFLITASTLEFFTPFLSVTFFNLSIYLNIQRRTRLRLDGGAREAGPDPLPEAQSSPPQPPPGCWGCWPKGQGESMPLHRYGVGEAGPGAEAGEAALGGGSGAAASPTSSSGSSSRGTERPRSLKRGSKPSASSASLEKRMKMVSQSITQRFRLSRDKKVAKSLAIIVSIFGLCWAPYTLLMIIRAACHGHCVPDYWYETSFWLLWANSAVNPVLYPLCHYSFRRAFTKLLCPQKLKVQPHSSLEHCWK

Row | Structure (SMILES) | Ki [µM]
1 | N=C(N)CCCc1c[nH]cn1 | 0.0012
2 | S=C(NC1CCCCC1)N1CCC(c2cnc[nH]2)CC1 [THIOPERAMIDE] | 0.0073
3 | N=C(N)c1ccc(CCc2cnc[nH]2)cc1 | 0.165
4 | N=C(CCc1ccc(Cc2cnc[nH]2)cc1)NCc1ccc(Cl)cc1 | 0.175
5 | N=C(N)c1cccc(-c2c[nH]cn2)c1 | 0.35
6 | N=C(NCc1ccc(Cl)cc1)c1ccc(Cc2c[nH]cn2)cc1 | 0.016
7 | COc1ccc(C/N=C(\N)c2ccc(Cc3c[nH]cn3)cc2)cc1 | 0.513

These molecules were tested on Cavia porcellus (assay: In vivo antihistaminic (Histamine H3) activity was determined in guinea pig). Conditions: not given.
Assay type: functional

Row | Structure (SMILES) | ED50 [mg/kg]
8 | S=C(NC1CCCCC1)N1CCC(c2cnc[nH]2)CC1 [THIOPERAMIDE] | 0.4
9 | N=C(Cc1ccc(Cc2c[nH]cn2)cc1)NCc1ccc(Cl)cc1 | 0.3
10 | N=C(NCc1ccc(Cl)cc1)c1ccc(Cc2c[nH]cn2)cc1 | 0.3

The molecules below were run against Histamine H3 receptor (Cavia porcellus) (UniProt Q9JI35) (assay: Compound was tested for inhibition of N-alpha-methylhistamine binding to histamine H3 receptor in guinea pig brain membranes). Conditions: Membrane, concentration not given here.
Histamine H3 receptor (Cavia porcellus), sequence (Q9JI35 whole entry): as above
Assay type: cell membranes

Row | inhibition [%] | Structure (SMILES)
11 | 49 | N=C(N)c1ccc(-c2c[nH]cn2)cc1
12 | 44 | N=C(NCc1ccncc1)c1ccc(Cc2c[nH]cn2)cc1

These molecules were tested on Cavia porcellus (assay: Percent inhibition of histamine H3 mediated antihistaminic activity in guinea pig was determined in vivo). Conditions: not given.
Assay type: functional

Row | Structure (SMILES) | Inhibition [%]
13 | N=C(N)c1ccc(Cc2c[nH]cn2)cc1 | 33
